Reference: PMC12136037, “Type II kinase inhibitors that target Parkinson’s disease–associated LRRK2” (Science Advances, 2025)
Several values for one entry are separate records, joined by “and”; a condition that tells them apart may be missing. Equal entries are not always repeated. Where two headings read alike, the source gives them in different places.

Legend:
DYRK2 = target: T1, DYRK2 (Homo sapiens, UniProt Q92630); test: nanoBRET off-target validation; format: cell-based
T1 construct: host or cells: HEK293T (ATCC CRL-3216)
T1 sequence (Q92630 1-601): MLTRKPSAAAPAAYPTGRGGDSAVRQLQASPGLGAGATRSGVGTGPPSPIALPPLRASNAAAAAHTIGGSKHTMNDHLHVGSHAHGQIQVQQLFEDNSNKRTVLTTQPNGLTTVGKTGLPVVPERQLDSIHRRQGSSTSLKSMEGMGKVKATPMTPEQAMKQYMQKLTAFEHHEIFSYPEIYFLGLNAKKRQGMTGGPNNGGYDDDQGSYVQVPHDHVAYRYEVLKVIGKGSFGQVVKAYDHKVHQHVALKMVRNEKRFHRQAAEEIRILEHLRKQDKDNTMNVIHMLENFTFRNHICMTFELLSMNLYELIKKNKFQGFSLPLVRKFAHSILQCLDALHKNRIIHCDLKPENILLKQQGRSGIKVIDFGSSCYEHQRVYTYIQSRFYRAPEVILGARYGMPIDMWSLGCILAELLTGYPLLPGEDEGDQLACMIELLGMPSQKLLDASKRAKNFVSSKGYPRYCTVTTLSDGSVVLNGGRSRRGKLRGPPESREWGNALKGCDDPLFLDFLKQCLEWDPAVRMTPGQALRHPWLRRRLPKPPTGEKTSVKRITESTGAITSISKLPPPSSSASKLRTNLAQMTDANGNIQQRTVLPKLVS
Method: (§1) The assay was performed as described previously ([61]). In brief, full-length kinases as listed in table S6 were obtained as plasmids cloned in frame with terminal NanoLuc-fusion (gift from Promega; table S6). […] Serially diluted inhibitor and corresponding tracer as listed in table S6 at the Tracer KD concentration taken from TracerDB (tracerdb.org) ([62]) were pipetted into white 384-well plates (Greiner, 781207) using an ECHO acoustic dispenser (Labcyte). The corresponding protein-transfected cells were added and reseeded at a density of 2 × 10^5 cells/ml after trypsinization and resuspending in Opti-MEM without phenol red (Life Technologies). The system was allowed to equilibrate for 3 hours at 37°C/5% CO2 before bioluminescence resonance energy transfer (BRET) measurements. To measure BRET, NanoBRET NanoGlo Substrate + extracellular NanoLuc Inhibitor (Promega, N2540) was added as per the manufacturer’s protocol, and filtered luminescence was measured on a PHERAstar plate reader (BMG Labtech) equipped with a luminescence filter pair [450-nm BP filter (donor) and 610-nm LP filter (acceptor)]. […] (For step-by-step protocol, see www.eubopen.org/sites/www.eubopen.org/files/attachments/2021/NanoBRET-IC50_v1_0.pdf.)

TTK = target: T2, TTK (Homo sapiens, UniProt P33981); test: nanoBRET off-target validation; format: cell-based
T2 construct: host or cells: HEK293T (ATCC CRL-3216)
T2 sequence (P33981 1-857): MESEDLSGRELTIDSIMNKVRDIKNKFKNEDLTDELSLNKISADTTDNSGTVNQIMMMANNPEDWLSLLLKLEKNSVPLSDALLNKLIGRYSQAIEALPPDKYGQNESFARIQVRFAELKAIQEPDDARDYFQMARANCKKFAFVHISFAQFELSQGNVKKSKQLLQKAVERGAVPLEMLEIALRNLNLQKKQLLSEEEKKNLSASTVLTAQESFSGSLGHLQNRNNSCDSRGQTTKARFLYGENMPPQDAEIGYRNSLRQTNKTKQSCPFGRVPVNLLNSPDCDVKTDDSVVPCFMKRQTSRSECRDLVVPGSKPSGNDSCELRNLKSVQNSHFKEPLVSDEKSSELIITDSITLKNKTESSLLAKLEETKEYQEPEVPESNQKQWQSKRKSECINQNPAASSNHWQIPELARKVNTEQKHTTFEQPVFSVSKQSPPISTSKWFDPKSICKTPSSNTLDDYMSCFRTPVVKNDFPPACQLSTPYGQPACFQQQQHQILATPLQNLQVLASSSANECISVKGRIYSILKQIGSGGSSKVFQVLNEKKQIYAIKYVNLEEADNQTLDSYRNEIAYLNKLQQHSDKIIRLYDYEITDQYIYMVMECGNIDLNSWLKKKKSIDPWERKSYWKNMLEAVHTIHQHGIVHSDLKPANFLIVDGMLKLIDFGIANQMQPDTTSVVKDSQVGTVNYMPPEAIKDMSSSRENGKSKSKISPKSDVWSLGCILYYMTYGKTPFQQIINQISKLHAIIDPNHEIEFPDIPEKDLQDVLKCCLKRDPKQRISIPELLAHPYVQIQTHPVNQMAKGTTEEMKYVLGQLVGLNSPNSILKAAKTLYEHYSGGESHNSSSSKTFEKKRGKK
Method: as §1

Which results are given for `CCSc1nc(NC)c2c(-c3cccc(NC(=O)Nc4cc(C(C)(C)C)nn4-c4ccc(C)cc4)c3)c[nH]c2n1` [Compound 32]?
EC50 (DYRK2): ≥ 20 µM; nanoBRET response normalized to 0% (no tracer) and 100% (no inhibitor) control (DYRK2; DYRK2, inhibitor 8 nM, two replicates, listed as RN341, 0.008 µM): 91.4839%; remaining nanoBRET tracer signal (% of no-inhibitor control) at 0.008 µM (DYRK2; DYRK2, inhibitor 8 nM, two replicates, read-out: nanoBRET response normalized to 0% (no tracer) and 100% (no inhibitor) control): 100%; nanoBRET response normalized to 0% (no tracer) and 100% (no inhibitor) control (DYRK2; DYRK2, inhibitor 16 nM, two replicates, listed as RN341, 0.016 µM): 93.886%; remaining nanoBRET tracer signal (% of no-inhibitor control) at 0.016 µM (DYRK2; DYRK2, inhibitor 16 nM, two replicates, read-out: nanoBRET response normalized to 0% (no tracer) and 100% (no inhibitor) control): 98.2%; nanoBRET response normalized to 0% (no tracer) and 100% (no inhibitor) control (DYRK2; DYRK2, inhibitor 50 nM, two replicates, listed as RN341, 0.05 µM): 96.6464%; remaining nanoBRET tracer signal (% of no-inhibitor control) at 0.05 µM (DYRK2; DYRK2, inhibitor 50 nM, two replicates, read-out: nanoBRET response normalized to 0% (no tracer) and 100% (no inhibitor) control): 100%; remaining nanoBRET tracer signal (% of no-inhibitor control) at […] (DYRK2; DYRK2, inhibitor 250 nM, two replicates, read-out: nanoBRET response normalized to 0% (no tracer) and 100% (no inhibitor) control): 102% and 94.4%; nanoBRET response normalized to 0% (no tracer) and 100% (no inhibitor) control (DYRK2; DYRK2, inhibitor 500 nM, two replicates, listed as RN341, 0.5 µM): 90.6654%; remaining nanoBRET tracer signal (% of no-inhibitor control) at 0.5 µM (DYRK2; DYRK2, inhibitor 500 nM, two replicates, read-out: nanoBRET response normalized to 0% (no tracer) and 100% (no inhibitor) control): 98.4%; nanoBRET response normalized to 0% (no tracer) and 100% (no inhibitor) control (DYRK2; DYRK2, inhibitor 2500 nM, two replicates, listed as RN341, […]): 86.4231%; remaining nanoBRET tracer signal (% of no-inhibitor control) at […] (DYRK2; DYRK2, inhibitor 2500 nM, two replicates, read-out: nanoBRET response normalized to 0% (no tracer) and 100% (no inhibitor) control): 88.8%; nanoBRET response normalized to 0% (no tracer) and 100% (no inhibitor) control (DYRK2; DYRK2, inhibitor 5000 nM, two replicates, listed as RN341, 5 µM): 92.7606%; remaining nanoBRET tracer signal (% of no-inhibitor control) at 5 µM (DYRK2; DYRK2, inhibitor 5000 nM, two replicates, read-out: nanoBRET response normalized to 0% (no tracer) and 100% (no inhibitor) control): 83.2%; nanoBRET response normalized to 0% (no tracer) and 100% (no inhibitor) control (DYRK2; DYRK2, inhibitor 25000 nM, two replicates, listed as RN341, 25 µM): 54.6216%; remaining nanoBRET tracer signal (% of no-inhibitor control) at 25 µM (DYRK2; DYRK2, inhibitor 25000 nM, two replicates, read-out: nanoBRET response normalized to 0% (no tracer) and 100% (no inhibitor) control): 47.6%; nanoBRET response normalized to 0% (no tracer) and 100% (no inhibitor) control (TTK; TTK, inhibitor 8 nM, two replicates, listed as RN341, 0.008 µM): 91.3329%; remaining activity at 0.008 µM (TTK; TTK, inhibitor 8 nM, two replicates, read-out: nanoBRET response normalized to 0% (no tracer) and 100% (no inhibitor) control): 96.9%; nanoBRET response normalized to 0% (no tracer) and 100% (no inhibitor) control (TTK; TTK, inhibitor 16 nM, two replicates, listed as RN341, 0.016 µM): 88.618%; remaining activity at 0.016 µM (TTK; TTK, inhibitor 16 nM, two replicates, read-out: nanoBRET response normalized to 0% (no tracer) and 100% (no inhibitor) control): 84.1%; nanoBRET response normalized to 0% (no tracer) and 100% (no inhibitor) control (TTK; TTK, inhibitor 50 nM, two replicates, listed as RN341, 0.05 µM): 96.6909%; remaining activity at 0.05 µM (TTK; TTK, inhibitor 50 nM, two replicates, read-out: nanoBRET response normalized to 0% (no tracer) and 100% (no inhibitor) control): 85.3%; nanoBRET response normalized to 0% (no tracer) and 100% (no inhibitor) control (TTK; TTK, inhibitor 250 nM, two replicates, listed as RN341, […]): 83.1162%; remaining activity at […] (TTK; TTK, inhibitor 250 nM, two replicates, read-out: nanoBRET response normalized to 0% (no tracer) and 100% (no inhibitor) control): 80%; nanoBRET response normalized to 0% (no tracer) and 100% (no inhibitor) control (TTK; TTK, inhibitor 500 nM, two replicates, listed as RN341, 0.5 µM): 67.3053%; remaining activity at 0.5 µM (TTK; TTK, inhibitor 500 nM, two replicates, read-out: nanoBRET response normalized to 0% (no tracer) and 100% (no inhibitor) control): 61.5%; nanoBRET response normalized to 0% (no tracer) and 100% (no inhibitor) control (TTK; TTK, inhibitor 2500 nM, two replicates, listed as RN341, […]): 72.9908%; remaining activity at […] (TTK; TTK, inhibitor 2500 nM, two replicates, read-out: nanoBRET response normalized to 0% (no tracer) and 100% (no inhibitor) control): 70.3%; nanoBRET response normalized to 0% (no tracer) and 100% (no inhibitor) control (TTK; TTK, inhibitor 5000 nM, two replicates, listed as RN341, 5 µM): 54.1735%; remaining activity at 5 µM (TTK; TTK, inhibitor 5000 nM, two replicates, read-out: nanoBRET response normalized to 0% (no tracer) and 100% (no inhibitor) control): 40.9%; nanoBRET response normalized to 0% (no tracer) and 100% (no inhibitor) control (TTK; TTK, inhibitor 25000 nM, two replicates, listed as RN341, 25 µM): 18.6146%; remaining activity at 25 µM (TTK; TTK, inhibitor 25000 nM, two replicates, read-out: nanoBRET response normalized to 0% (no tracer) and 100% (no inhibitor) control): 14.2%; EC50 (TTK; in cellulo nanoBRET, 293T cells): < 5 µM and 3.2 µM
